Reference: patent US20260364124A1, “ANTI-C. DIFFICILE SMALL MOLECULE METABOLITES FROM DIET AND GUT MICROBIOME” (The Children's Medical Center Corporation, priority 2023, published 2026)
“Also recorded” adds a separate entry of the source.

Legend:
B. uniformis = experiment: In vitro aglycone liberation by wildtype B. uniformis (LC-MS); design: species or system Bacteroides uniformis ATCC 8492; conditions: role: product; B. uniformis culture supplemented with glycoside, after eight hours, LC-MS EIC (FIG. 2)
Description: Comparative LC-MS EICs (Extracted Ion Chromatogram) of methanol-water extracts of bacterial cultures supplemented with each polyphenolic glycoside after eight hours are provided. The trace labeled “A” corresponds to the EIC of each glycoside, and the trace labeled “B” corresponds to the EIC of each aglycone. The portion of the trace “B” peak overlapping the trace “A” peak corresponds to the aglycone detected from fragmentation of the glycoside at the ionization source and is a technical artifact.
FIGS. 5A and 5B show microbiome-mediated polyphenol aglycone liberation. […] Step 2: Spent media was filter-sterilized. Step 3: C. difficile was grown in spent media from either vehicle or polydatin (top).
In vitro aglycone liberation: All B. uniformis strains were grown on brain-heart-infusion supplemented with hemin (50 mg/L) and vitamin K1 (0.25 mg/L) (BHIS) agar plates or in basal media (BSG; proteose peptone (20 g/L), yeast (5 g/L), NaCl (5 g/L), glucose (5 g/L), potassium phosphate dibasic (5 g/L), cysteine (0.5 g/L), hemin (50 mg/L), and vitamin K1 (0.25 mg/L). All isolates were recovered on and grown in pre-reduced media in a Coy anaerobic chamber (Coy Labs).
To assess the capacity of Bacteroides to liberate aglycones from their parent polyphenolic glycosides, B. uniformis ATCC 8492 WT and AgshD were recovered on a BHIS agar plate and incubated anaerobically at 37 °C for 48 h. A starter culture (1 mL) of BSG was inoculated with each isolate and grown for 15 h. This starter culture was then used to inoculate a BSG sub-culture (1 mL) at a final dilution of 1:10. […]
For polyphenolic glycoside and aglycone-containing samples, samples were dried under nitrogen flow and resuspended in 50 μl of methanol 50% in water. […] Samples were quantified on a QEplus mass spectrometer coupled to an Ultimate 3000 LC (Thermo fisher). […] Quantification was performed using Tracefinder (Thermo fisher), using the ratio of the area under the peak for each compound and of the internal standard, using the accurate mass of the [M−H]^− ions.

C. difficile [1] = experiment: Phytochemical microbial killing assay, panel of gut bacterial pathogens; format: cell-based, Clostridioides difficile; conditions: 150 μM, media with glucose, growth ratio (AUC) vs vehicle, panel of gut bacterial pathogens (FIG. 3A)
Description: Growth is measured as the ratio of growth in media (AUC) supplemented with glucose and 150 μM glycoside or aglycone versus growth in media (AUC) supplemented with glucose and vehicle. Value>1 is representative of enhanced growth in compound and value<1 is representative of inhibition of growth in compound.
Phytochemical microbial killing assays: All gut pathogen isolates were grown on brain-heart-infusion supplemented with hemin (50 mg/L) and vitamin K1 (0.25 mg/L) (BHIS) agar plates or in basal media (BSG; proteose peptone (20 g/L), yeast (5 g/L), NaCl (5 g/L), glucose (5 g/L), potassium phosphate dibasic (5 g/L), cysteine (0.5 g/L), hemin (50 mg/L), and vitamin K1 (0.25 mg/L). Isolates were recovered on and grown in pre-reduced media in a Coy anaerobic chamber (Coy Labs). To determine the fitness effects of phloridzin hydrate (TCI), phloretin (TCI), polydatin (TCI), and resveratrol (TCI) on enteric pathogen fitness, each pathogen isolate was recovered on a BHIS agar plate and incubated anaerobically at 37 °C for 48 h. A starter culture (1 mL) of BSG was inoculated with C. difficile and grown for 15 h. […] Bacterial growth was monitored by measuring the optical density at 600 nm (OD600) of each culture in a 384 well plate with an Epoch2 spectrophotometer (BioTek Instruments) and MicroPlate stacker (Agilent BioTek) for 24 hours.

C. difficile [2] = experiment: C. difficile infection (CDI) mouse model, C. difficile burden (CFU); format: in vivo, mouse (C57BL/6J) infected with Clostridioides difficile; conditions: infected mice; for anti-microbial effect on C. difficile in vivo: 500 μM in drinking water, CFU at day one and day two (FIG. 3C); for C. difficile burden in vivo: pure compound administered (FIGS. 6A-6B)
Description: (§1) FIG. 3B provides a heatmap of growth of 20 Clostridioides difficile isolates in the absence of presence of the polyphenolic glycoside polydatin or the Bacteroides liberated aglycone resveratrol. […] Growth induction or inhibition is measured as the ratio of growth in media (AUC) supplemented with glucose and 150 μM polydatin or resveratrol versus growth in media (AUC) supplemented with glucose and vehicle. Value>1 is representative of enhanced growth in compound and value <1 is representative of inhibition of growth in compound.
C. difficile infection (CDI) model: An antibiotic-treatment-induced CDI mouse model developed previously was used for the infection model. Briefly, six-to eight-week-old male and female SPF C57BL/6J WT mice were treated for three days with a mixture of antibiotics including vancomycin (0.4 mg/mL, Sigma) colistin (850 U/mL, Sigma), metronidazole (0.215 mg/mL, Sigma), gentamicin (0.035 mg/mL, RPI), and kanamycin (0.045 mg/mL, Sigma) in their drinking water. Mice were then treated with regular water for two days and then injected intraperitoneal (IP) with clindamycin (10 mg/kg, Mylan Pharmaceuticals) in normal saline. After one day, mice were gavaged with […] of C. difficile M7404 diluted in PBS. Stool was collected from mice at one day and two days post infection, and immediately taken for assessment of C. difficile infection load.
C. difficile colony-forming units (CFUs): Mouse feces were collected from mice on day one and day two of C. difficile infection. Feces were weighed and resuspended to 50 mg/mL in pre-reduced 1× PBS. CFUs were enumerated by plating multiple dilutions on pre-reduced commercial ChromID C. difficile -selective plates (Biomerieux) after incubation for 24 hours at 37 °C in an anaerobic chamber (Coy Labs).

C. difficile isolates = experiment: Phytochemical microbial killing assay, diverse C. difficile isolates; format: cell-based, Clostridioides difficile
Description: as §1
Bacterial isolates were grown in vitro in media plus compound. Killing was measured by bacterial culture optical density (proxy for amount of bacteria in a culture).
Phytochemical microbial killing assays: All gut pathogen isolates were grown on brain-heart-infusion supplemented with hemin (50 mg/L) and vitamin K1 (0.25 mg/L) (BHIS) agar plates or in basal media (BSG; proteose peptone (20 g/L), yeast (5 g/L), NaCl (5 g/L), glucose (5 g/L), potassium phosphate dibasic (5 g/L), cysteine (0.5 g/L), hemin (50 mg/L), and vitamin K1 (0.25 mg/L). Isolates were recovered on and grown in pre-reduced media in a Coy anaerobic chamber (Coy Labs). To determine the fitness effects of phloridzin hydrate (TCI), phloretin (TCI), polydatin (TCI), and resveratrol (TCI) on enteric pathogen fitness, each pathogen isolate was recovered on a BHIS agar plate and incubated anaerobically at 37 °C for 48 h. A starter culture (1 mL) of BSG was inoculated with C. difficile and grown for 15 h. This starter culture was then used to inoculate a BSG sub-culture (1 mL) at a final dilution of 1:10. This sub-culture was grown for 3 h to an OD600~0.5 before being used to inoculate experimental cultures at a final dilution of 1:50. The experimental media consisted of a modified YCFA media (mYCFA; casitone (2.5 g/L), yeast extract (0.625 g/L), cysteine (0.5 g/L), magnesium sulfate heptahydrate (f.c. 365 μM), calcium chloride dihydrate (f.c. 610 μM), sodium bicarbonate (4 g/L), dipotassium phosphate (0.45 g/L), monopotassium phosphate (0.45 g/L), sodium chloride (0.9 g/L), sodium acetate (2.71 g/L), Hemin (50 mg/L), Vitamin K1 (0.25 mg/L), ferrous sulfate (4 μg/mL), ATCC vitamin mix (1% v/v)) supplemented with glucose (15 mM, Sigma) plus each compound (150 μM) or glucose (15 mM, Sigma) plus DMSO (0.15%, Sigma). Bacterial growth was monitored by measuring the optical density at 600 nm (OD600) of each culture in a 384 well plate with an Epoch2 spectrophotometer (BioTek Instruments) and MicroPlate stacker (Agilent BioTek) for 24 hours.

SMILES | liberation of aglycone from polyphenolic glycoside (B. uniformis) | selective killing of C. difficile (C. difficile [1]) | anti-microbial effect on C. difficile in vivo (C. difficile [2]) | C. difficile burden in vivo (C. difficile [2]) | growth inhibition of Clostridioides difficile (C. difficile isolates; 150 μM, 20 C. difficile isolates, growth ratio (AUC) vs vehicle (FIG. 3B)) | killing / growth inhibition of diverse C. difficile isolates (C. difficile isolates; in vitro, media plus compound, culture optical density (FIG. 4))
O=C(CCc1ccc(O)cc1)c1c(O)cc(O)cc1O [phloretin] | liberates phloretin and resveratrol from their natural prodrugs in vitro | selectively kill the enteric pathogen C. difficile; also recorded: selectively kill hypervirulent C. difficile | potent anti-microbial effects on C. difficile in vivo | decreases C. difficile burden | – | –
Oc1ccc(C=Cc2cc(O)cc(O)c2)cc1 [resveratrol] | liberates phloretin and resveratrol from their natural prodrugs in vitro | selectively kill the enteric pathogen C. difficile; also recorded: selectively kill hypervirulent C. difficile | potent anti-microbial effects on C. difficile in vivo | decreases C. difficile burden | showed growth inhibition of Clostridioides difficile; also recorded: universally anti-microbial against C. difficile | kills many diverse C. difficile isolates; also recorded: showed growth inhibition of C. difficile
